Data taken from paper PMC6748986, “Potent modulation of the CepR quorum sensing receptor and virulence in a Burkholderia cepacia complex member using non-native lactone ligands” (Scientific Reports, 2019).

Tests used:
[1] = biological target: T1, CepR (Burkholderia cenocepacia, UniProt B4EMD0); assay: CepR agonism in E. coli β-galactosidase reporter (Ec-reporter) JLD271 [pJN105-cepR + pSC11-cepI]; format: cell-based, B. cenocepacia
T1 sequence (B4EMD0 1-239): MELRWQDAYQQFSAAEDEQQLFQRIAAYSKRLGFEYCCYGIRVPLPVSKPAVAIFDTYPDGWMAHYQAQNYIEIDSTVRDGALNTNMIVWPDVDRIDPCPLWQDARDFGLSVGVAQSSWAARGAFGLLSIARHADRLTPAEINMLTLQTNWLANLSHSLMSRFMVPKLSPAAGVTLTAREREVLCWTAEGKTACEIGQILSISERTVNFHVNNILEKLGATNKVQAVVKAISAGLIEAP
Description: (§1) We began our study by screening the AHL library for CepR modulators using an E. coli-based two plasmid reporter system (Ec-reporter)[38]–[40]. Certain members of the Bcc harbor additional QS systems that are either AHL-based (e.g., BviI/BviR in B. vietnamiensis)[41] or diffusible signal factor (DSF)-based (B. cenocepacia)[42], and at least one member of the Bcc has multiple receptors that respond to C8-AHL (e.g., CepR and CepR2 in B. cenocepacia)[43]. Thus, we reasoned that using a CepR reporter in a heterologous background could simplify our initial analyses. We modified our previously reported E. coli-based two plasmid β-galactosidase reporter system to develop a CepR Ec-reporter (see Methods). The first plasmid, pJN105-cepR, contains CepR from B. cenocepacia under the control of the L-arabinose inducible pBAD promoter. A second plasmid contains a transcriptional fusion of lacZ to the cepI promoter region. The two plasmids were co-transformed into a QS mutant E. coli strain (JLD271 ∆sdiA) that lacks its LuxR-type receptor, SdiA. Using this reporter system, if an exogenously -added compound is able to interact with CepR, this will affect the protein’s interaction with the cepI promoter region and alter β-galactosidase production. Enzyme production, and thereby CepR activity, is then measurable via the degradation of a colorimetric substrate for β-galactosidase. Using this new Ec-reporter, we observed robust activity of CepR in response to its native ligand C8-AHL, with an EC50 of 5 nM (Table 1).
We used the CepR Ec-reporter to perform a primary agonism screen at a single compound concentration (100 μM, or its solubility limit, indicated in Table S1). Thirty-one compounds displaying ≥70% agonistic activity in CepR (relative to C8-AHL) were identified and subjected to dose-response analyses using the Ec-reporter (Table I; see Table S2 for complete screening data and Fig. S3 for dose-response curves).
(§2) E. coli β-galactosidase reporter assays (derived from ref.[63]) and reagents used to obtain primary screening and dose-response data were performed as previously described[22],[60],[64], with the following modifications: E. coli JLD271 (∆sdiA) was co-transformed iteratively with pSC11-cepI and pJN105-cepR via electroporation. A single colony was used to start overnight cultures in LB medium + ampicillin (100 μg/mL) + gentamicin (15 μg/mL). A 1:10 dilution of overnight culture was grown in fresh medium to OD600 = 0.25. A sterile solution of L-arabinose in water (27 mM final concentration) was added to induce protein expression, after which cells were plated in 96-well plates containing varying concentrations of compound (200 μL total volume).
(§3) Cells were grown for 4 h, OD600 was read, 50 μL aliquots from each well were permeabilized in 200 μL Z Buffer, and then 150 μL of this mixture used to measure the cleavage of 25 μL of 4 mg/mL CPRG in phosphate buffered saline (PBS) at 37 °C until positive control wells developed a deep red color (~30 min). For all agonism assays, synthetic compound (100 μM) was screened alongside and compared to the native ligand, C8-AHL (100 μM). For all primary and dose-response antagonism assays, the concentration of native ligand utilized was 10 nM (approximately equal to twice its EC50 value). […] At least 3 separate trials were performed using unique cultures on separate days.

[2] = biological target: T1, CepR; assay: CepR antagonism in E. coli β-galactosidase reporter (Ec-reporter), competition against C8-AHL; format: cell-based, B. cenocepacia; conditions: for Inh% (100-Act%): Table S3, Ec-reporter; for CepR antagonism in words: Ec-reporter
Description: as §1
To identify antagonists of CepR, we screened the AHL library (at 100 μM) in competition against the native ligand C8-AHL (at approximately twice its EC50 value, 0.01 μM) in the Ec-reporter. […] The active compounds were subjected to dose-response analyses in the Ec-reporter to obtain IC50 values and assess their relative potencies (Table 2; see Table S3 for complete screening data and Fig. S3 for dose-response curves). One general trend that we noted at the outset was the majority of the antagonists had acyl tails of similar or shorter overall length than CepR’s native ligand, C8-AHL. From this set, the strongest antagonists could be divided into two classes: (i) “short alkyl tail” AHLs or analogs thereof, and (ii) phenylacetanoyl HLs (PHLs). The discovery that the latter compounds were CepR antagonists was perhaps not surprising, as we have found substituted PHLs to strongly antagonize the majority of the LuxR-type receptors studied in our laboratory to date[22],[24],[29],[45],[46].
as §2, §3

[3] = Table S2, Ec-reporter, screening conc. 100 μM
[4] = screening conc. 100 μM, against 10 nM C8-AHL

## O=C(N[C@H]1CCOC1=O)c1ccc(-c2ccccc2)cc1 [Compound Q12]
[1]; [3]
  Act%: 111%
[2]; [4]
  Inh% (100-Act%): -70%

## CSc1ccc(CC(=O)N[C@H]2CCOC2=O)cc1 [Compound E6]
[1]; [3]
  Act%: 3.7%
[2]; [4]
  Inh% (100-Act%): -10%

## O=C(Cc1ccccc1F)N[C@H]1CCOC1=O [Compound C4]
[1]; [3]
  Act%: 0.1%
[2]
  CepR antagonism in words: inactive as antagonists
[2]; [4]
  Inh% (100-Act%): 3.0%

## O=C(N[C@H]1CCOC1=O)C1CCC(c2ccc(Cl)cc2)CC1 (stereo partly drawn) [Compound D14]
[1]; Table S2, Ec-reporter, screening conc. 40 μM
  Act%: 54%
[2]; screening conc. 40 μM
  Inh% (100-Act%): -20%

## COc1ccc(CC(=O)NC2CCSC2=O)cc1 (stereo not drawn) [Compound F12]
[1]; [3]
  Act%: 2.4%
[2]; [4]
  Inh% (100-Act%): -20%

## O=C(N[C@H]1CCOC1=O)c1ccc(I)cc1 [Compound Q5]
[1]; [3]
  Act%: 78%
[2]; [4]
  Inh% (100-Act%): 0.0%

## CCCCCCCCCCCCCC(O)CC(=O)NC1CCOC1=O (stereo not drawn) [3’OH-C16-AHL, reference compound]
[1]; [3]
  Act%: 8.0%
[2]; [4]
  Inh% (100-Act%): -50%

## O=C(CCCC1CCCCC1)N[C@H]1CCOC1=O [Compound S6]
[1]; [3]
  Act%: 90%
[2]; [4]
  Inh% (100-Act%): -10%

## O=C(Cc1ccc(Cl)cc1)N[C@H]1CCOC1=O [Compound C5]
[1]; [3]
  Act%: 0.1%
[2]; [4]
  Inh% (100-Act%): 25%

## CCCCCCCCc1ccc(C(=O)N[C@H]2CCOC2=O)cc1 [Compound D13]
[1]; [3]
  Act%: 4.2%
[2]; [4]
  Inh% (100-Act%): 38%

## CCCc1ccc(C(=O)CCC(=O)N[C@H]2CCOC2=O)cc1 [Compound D7]
[1]; [3]
  Act%: 18%
[2]; [4]
  Inh% (100-Act%): 15%

## O=C(Cc1ccc(Br)cc1)N[C@@H]1CCOC1=O [Compound B4]
[1]; [3]
  Act%: -0.5%
[2]; [4]
  Inh% (100-Act%): 0.0%

## O=C(Cc1cccc([N+](=O)[O-])c1)NC1CCSC1=O (stereo not drawn) [Compound F11]
[1]; [3]
  Act%: 45.0%
[2]; [4]
  Inh% (100-Act%): 25%

## O=C(CCc1ccco1)N[C@H]1CCOC1=O [Compound D2]
[1]; [3]
  Act%: 70%
[2]; [4]
  Inh% (100-Act%): 0.0%

## CCCCCCCCCCCC(=O)N[C@H]1CCOC1=O [Compound C12-AHL, Dodecanoyl L-homoserine lactone, reference compound]
[1]; Ec-reporter, agonism dose-response
  EC50: 0.31 µM
[1]; Ec-reporter, activity for 100 μM C8-AHL set to 100%, error ±10%
  Maximal Activation (%): 98%
[1]; [3]
  Act%: 98%
[2]; [4]
  Inh% (100-Act%): -30%

## O=C(Cc1cccc([N+](=O)[O-])c1)NC1CCCC1 [Compound F18]
[1]; [3]
  Act%: 1.0%
[2]
  CepR antagonism in words: dramatic losses in activity
[2]; [4]
  Inh% (100-Act%): -20%

## COc1ccc(C(=O)N[C@H]2CCOC2=O)cc1 [Compound Q6]
[1]; [3]
  Act%: 25%
[2]; [4]
  Inh% (100-Act%): -20%

## CCOc1ccc(C(=O)N[C@H]2CCOC2=O)cc1 [Compound R1]
[1]; Table S2, Ec-reporter
  EC50: 0.18 µM
[1]; [3]
  Act%: 99%
[2]; [4]
  Inh% (100-Act%): -20%

## CCCCCCCCCCCC(O)CC(=O)N[C@@H]1CCOC1=O (stereo partly drawn) [3’OH-C14-AHL, reference compound]
[1]; [3]
  Act%: 33%
[2]; [4]
  Inh% (100-Act%): -40%

## CCCCCC(=O)CC(=O)NC1CCSC1=O (stereo not drawn) [3’O-C8-TL]
[1]; [3]
  Act%: 61%
[2]; [4]
  Inh% (100-Act%): -20%

## CCCCCCCCCC(O)CC(=O)N[C@H]1CCOC1=O (stereo partly drawn) [3’OH-C12-AHL, reference compound]
[1]; [3]
  Act%: 52%
[2]; [4]
  Inh% (100-Act%): 0.0%

## Cc1cccc(CCC(=O)N[C@H]2CCOC2=O)c1 [Compound E27]
[1]; Table S2, Ec-reporter
  EC50: 0.85 µM
[1]; [3]
  Act%: 75%
[2]; [4]
  Inh% (100-Act%): -10%

## O=C(CCCc1c[nH]c2ccccc12)N[C@@H]1CCOC1=O [Compound B5]
[1]; [3]
  Act%: 7.2%
[2]; [4]
  Inh% (100-Act%): -30%

## meta-bromo-thiolactone [mBTL, reference compound]
[1]; [3]
  Act%: 0.4%
[2]; [4]
  Inh% (100-Act%): -60%

## Cc1ccc(C(=O)CCC(=O)N[C@H]2CCOC2=O)cc1 [Compound D6]
[1]; [3]
  Act%: 61%
[2]; [4]
  Inh% (100-Act%): -50%

## COc1ccc(OCC(=O)N[C@H]2CCOC2=O)cc1 [Compound E17]
[1]; [3]
  Act%: 50%
[2]; [4]
  Inh% (100-Act%): 0.0%

## O=C(Cc1ccc(I)cc1)N[C@H]1CCOC1=O [Compound C10]
[1]; [3]
  Act%: 29%
[2]; [4]
  Inh% (100-Act%): -10%

## O=C(COc1ccccc1)N[C@H]1CCOC1=O [Compound E14]
[1]; [3]
  Act%: 57%
[2]; [4]
  Inh% (100-Act%): -30%

## O=C(N[C@H]1CCOC1=O)c1ccccc1 [Compound B8]
[1]; [3]
  Act%: 10%
[2]; [4]
  Inh% (100-Act%): 1.0%

## O=C(COc1ccc(F)cc1)N[C@H]1CCOC1=O [Compound E19]
[1]; [3]
  Act%: 42%
[2]; [4]
  Inh% (100-Act%): 22%

## O=C(C=Cc1ccccc1)NC1CCOC1=O (stereo not drawn) [Compound B10]
[1]; [3]
  Act%: 60%
[2]; [4]
  Inh% (100-Act%): 11%

## CCCCCCCCCCCCn1nnc(CC(=O)O)n1 [PD-12, reference compound]
[1]; [3]
  Act%: -7.6%
[2]; [4]
  Inh% (100-Act%): -40%

## CC(C)(C)OC(=O)c1ccc(C(=O)N[C@H]2CCOC2=O)cc1 [Compound Q13]
[1]; [3]
  Act%: 6.8%
[2]; [4]
  Inh% (100-Act%): 11%

## CCCCCCCC(=O)CC(=O)N[C@H]1CCOC1=O [3’O-C10-AHL, reference compound]
[1]; Table S2, Ec-reporter
  EC50: 2.3 µM
[1]; [3]
  Act%: 110%
[2]; [4]
  Inh% (100-Act%): -60%

## O=C(N[C@H]1CCOC1=O)c1cnn(-c2ccccc2)c1C(F)(F)F [Compound D9]
[1]; [3]
  Act%: 14%
[2]; [4]
  Inh% (100-Act%): 0.0%

## O=C(N[C@H]1CCOC1=O)c1ccc(F)cc1 [Compound Q3]
[1]; [3]
  Act%: 11%
[2]; [4]
  Inh% (100-Act%): 17%

## O=C(Cc1ccc(Br)cc1)NC1CCSC1=O (stereo not drawn) [Compound F10]
[1]; [3]
  Act%: 0.5%
[2]
  CepR antagonism in words: dramatic losses in activity
[2]; [4]
  Inh% (100-Act%): 6.0%

## O=C(CC(=O)N[C@H]1CCOC1=O)Cc1cccc(Cl)c1 [Compound H23]
[1]; [3]
  Act%: 53%
[2]; [4]
  Inh% (100-Act%): -20%
